Several values for one entry are separate records, joined by “and”; a condition that tells them apart may be missing. Equal entries are not always repeated. Where two headings read alike, the source gives them in different places. Square brackets hold non-standard residues; d marks the D form. Peptide text beside a SMILES is read from it. Gly(N-(CH2)3-guanidino) = N=C(N)NCCCNCC(=O)O; Dap = NC[C@H](N)C(=O)O
Tests used:
[1] = target: T1, mMC4R (Mus musculus, UniProt P56450); experiment: cell-based
T1 sequence (P56450 whole entry): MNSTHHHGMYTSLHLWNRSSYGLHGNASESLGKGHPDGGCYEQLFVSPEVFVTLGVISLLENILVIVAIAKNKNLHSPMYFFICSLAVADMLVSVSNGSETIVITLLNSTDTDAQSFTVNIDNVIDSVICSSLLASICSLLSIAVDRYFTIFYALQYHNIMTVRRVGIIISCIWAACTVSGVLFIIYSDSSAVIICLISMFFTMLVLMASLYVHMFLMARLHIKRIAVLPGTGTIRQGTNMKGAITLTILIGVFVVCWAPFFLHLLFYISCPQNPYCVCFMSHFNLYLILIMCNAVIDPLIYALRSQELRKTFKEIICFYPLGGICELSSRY

[2] = target: T2, mMC3R (Mus musculus, UniProt P33033); settings: for mMC3R pA2: antagonist, Schild analysis with NDP-MSH, ± SEM
T2 sequence (P33033 whole entry): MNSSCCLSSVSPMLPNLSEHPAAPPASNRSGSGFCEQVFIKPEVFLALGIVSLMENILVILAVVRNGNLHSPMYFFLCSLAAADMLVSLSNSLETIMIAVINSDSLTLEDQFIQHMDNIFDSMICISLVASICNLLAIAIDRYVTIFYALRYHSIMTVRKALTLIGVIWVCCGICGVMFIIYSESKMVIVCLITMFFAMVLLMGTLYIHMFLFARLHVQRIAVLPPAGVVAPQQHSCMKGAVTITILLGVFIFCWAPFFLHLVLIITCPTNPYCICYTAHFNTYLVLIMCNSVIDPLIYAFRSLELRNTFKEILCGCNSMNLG

[3] = target: T3, mMC5R (Mus musculus, UniProt P41149); settings: for mMC5R pA2: Example 1, antagonist, Schild analysis with NDP-MSH, ± SEM, reported herein for the first time
T3 sequence (P41149 whole entry): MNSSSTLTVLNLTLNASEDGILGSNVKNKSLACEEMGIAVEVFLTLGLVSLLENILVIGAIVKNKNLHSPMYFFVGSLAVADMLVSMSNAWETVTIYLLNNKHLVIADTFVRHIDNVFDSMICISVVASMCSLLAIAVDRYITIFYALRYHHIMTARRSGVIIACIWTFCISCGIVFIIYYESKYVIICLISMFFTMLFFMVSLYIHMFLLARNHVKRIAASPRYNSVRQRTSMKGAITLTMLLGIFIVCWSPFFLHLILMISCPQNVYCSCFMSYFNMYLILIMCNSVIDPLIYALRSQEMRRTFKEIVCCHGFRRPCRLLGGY

[4] = target: T2, mMC3R; settings: compounds 1 and 2, previously reported, cited from earlier work; for mMC3R pA2: antagonist
[5] = target: T4, hMC4R (Homo sapiens, UniProt P32245); experiment: cAMP AlphaScreen bioassay, HEK293 cells stably expressing hMC4R; type: cell-based; parameters: expressed in transfected cells; settings: for Observed Inverse Agonism?: hMC4R, cAMP; for hMC4R pA2: antagonist pA2, Schild analysis with agonist NDP-MSH, ± SEM, <5.0 = no antagonist potency up to 10,000 nM
T4 sequence (P32245 whole entry): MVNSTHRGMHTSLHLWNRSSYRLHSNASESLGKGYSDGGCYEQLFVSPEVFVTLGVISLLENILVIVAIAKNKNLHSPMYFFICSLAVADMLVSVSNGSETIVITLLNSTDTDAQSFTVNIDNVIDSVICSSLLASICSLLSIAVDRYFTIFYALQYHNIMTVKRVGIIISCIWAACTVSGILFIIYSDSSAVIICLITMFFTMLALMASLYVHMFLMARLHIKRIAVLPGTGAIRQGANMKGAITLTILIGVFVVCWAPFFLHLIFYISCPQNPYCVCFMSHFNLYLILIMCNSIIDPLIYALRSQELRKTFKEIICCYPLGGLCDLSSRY

[6] = target: T3, mMC5R; parameters: expressed in transfected cells; settings: compounds 1 and 2, previously reported; cited from earlier work
[7] = target: T5, mMC1R (Mus musculus, UniProt Q01727); experiment: cAMP AlphaScreen bioassay, HEK293 cells stably expressing mMC1R; settings: Example 2; @ 100 μM; EC50 not determinable
T5 sequence (Q01727 whole entry): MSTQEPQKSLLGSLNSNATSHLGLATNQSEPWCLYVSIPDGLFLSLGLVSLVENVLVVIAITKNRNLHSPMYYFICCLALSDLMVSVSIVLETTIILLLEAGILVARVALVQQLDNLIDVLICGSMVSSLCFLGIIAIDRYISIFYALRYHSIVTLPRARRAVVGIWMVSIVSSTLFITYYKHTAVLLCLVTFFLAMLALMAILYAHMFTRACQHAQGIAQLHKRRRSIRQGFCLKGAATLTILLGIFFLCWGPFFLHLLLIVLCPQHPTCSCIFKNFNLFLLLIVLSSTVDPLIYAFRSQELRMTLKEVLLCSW

[8] = target: T1, mMC4R; settings: Example 1; for mMC4R pA2: antagonist, Schild analysis with NDP-MSH, ± SEM, <5.0 = no antagonist potency up to 10,000 nM
[9] = target: T5, mMC1R; experiment: 125I-NDP-MSH competitive binding assay, transfected HEK293 cells, mMC1R; settings: binding IC50 versus control 1 (Asn) or 2 (Dap)
[10] = target: T2, mMC3R; experiment: 125I-NDP-MSH competitive binding assay, transfected HEK293 cells, mMC3R; settings: binding IC50 versus control 1 (Asn) or 2 (Dap)
[11] = target: T1, mMC4R; experiment: 125I-NDP-MSH competitive binding assay, transfected HEK293 cells, mMC4R; settings: binding IC50 versus control 1 (Asn) or 2 (Dap)
[12] = target: T3, mMC5R; experiment: 125I-NDP-MSH competitive binding assay, transfected HEK293 cells, mMC5R; settings: binding IC50 versus control 1 (Asn) or 2 (Dap)
[13] = target: T4, hMC4R; experiment: 125I-NDP-MSH competitive binding assay, transfected HEK293 cells, hMC4R; settings: binding IC50 versus control 1 (Asn) or 2 (Dap)
[14] = target: MC5R (Homo sapiens, UniProt P33032); settings: chemically synthetized AgRP ligands, Yang et al. 1999, cited from earlier work
Sequence of MC5R (P33032 whole entry, species assumed): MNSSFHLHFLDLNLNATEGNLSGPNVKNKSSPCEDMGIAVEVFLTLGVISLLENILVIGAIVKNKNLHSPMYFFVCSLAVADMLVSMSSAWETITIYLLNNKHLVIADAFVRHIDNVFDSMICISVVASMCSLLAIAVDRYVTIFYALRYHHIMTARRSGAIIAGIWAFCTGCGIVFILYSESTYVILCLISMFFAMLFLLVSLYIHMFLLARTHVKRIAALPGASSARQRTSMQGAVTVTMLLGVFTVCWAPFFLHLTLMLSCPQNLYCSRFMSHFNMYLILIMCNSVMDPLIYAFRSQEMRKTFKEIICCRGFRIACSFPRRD

[15] = Example 1, <5.0 = no antagonist potency up to 10,000 nM

Molecule	Observed Inverse Agonism? [5]	mMC3R pA2 [2, 15]	mMC4R pA2 [8]	mMC5R pA2 [3]	hMC4R pA2 [5]	mMC1R Fold Diff [9]	mMC3R Fold Diff [10]	mMC4R Fold Diff [11]	mMC5R Fold Diff [12]	hMC4R Fold Diff [13]	other results
C[C@@H]1NC(=O)[C@H](CN)NC(=O)[C@H](Cc2ccccc2)NC(=O)[C@H](Cc2ccccc2)NC(=O)CN(CCCNC(=N)N)C(=O)[C@@H]2CCCN2C(=O)[C@H]2CCCN2C(=O)[C@H](Cc2ccccc2)NC1=O [MDE8-108-3c, c[Pro-NArg-Phe-Phe-Dap-Ala-Phe-DPro]] (cyclo([Gly(N-(CH2)3-guanidino)]FF[Dap]AF[dP]P))	–	–	–	–	–	–	–	–	–	–	Kb [1]: 3160 nM
C[C@@H]1NC(=O)[C@H](CN)NC(=O)[C@H](Cc2ccccc2)NC(=O)[C@H](Cc2ccccc2)NC(=O)[C@H](CCCNC(=N)N)NC(=O)[C@@H]2CCCN2C(=O)[C@H]2CCCN2C(=O)[C@H](Cc2ccccc2)NC1=O [MDE 6-82-1c, c[Pro-Arg-Phe-Phe-Dap-Ala-Phe-DPro]]	Yes	–	–	–	–	–	–	–	–	–	mMC3R percent maximal stimulatory response ([2]; Example 2, @ 100 μM): 20% @; mMC3R pA2 ([2]; Example 2, <5.5 = no antagonist potency up to 10,000 nM): 6.5; mMC3R pA2 ([2]; Example 2, <5.5 = no antagonist potency up to 10,000 nM, listed as MDE6-82-1c): 6.5 ± 0.3; mMC5R pharmacology observed (Partial Agonist / Inverse Agonist) ([3]; Example 2): Inverse; mMC5R inverse agonist, percent decrease from basal ([3]; Example 2, basal to plateau signal, sigmoidal dose-response): −10%; EC50 ([4]; agonist): > 100000 nM; mMC3R pA2 [4]: 6.5 and 6.5 ± 0.09; mMC3R pA2 ([4]; listed as MDE6-82-1c): 6.5-7.2; mMC5R inverse agonist, percent decrease from basal [6]: −15%; mMC5R pharmacology observed in agonist assay (Inverse Agonist) [6]: Inverse; mMC1R percent maximal stimulatory response [7]: 36% @
C[C@@H]1NC(=O)[C@H](CN)NC(=O)[C@H](Cc2ccccc2)NC(=O)[C@H](Cc2ccc(O)cc2)NC(=O)[C@H](CCCNC(=N)N)NC(=O)[C@@H]2CCCN2C(=O)[C@H]2CCCN2C(=O)[C@H](Cc2ccccc2)NC1=O [ZMK 2-112, c[Pro-Arg-Tyr-Phe-Dap-Ala-Phe-DPro]] (cyclo(PRYF[Dap]AF[dP]))	Yes	6.5 and 6.5 ± 0.1	7.3 and 7.3 ± 0.1	6.5 and 6.5 ± 0.2	7.5 and 7.5 ± 0.2	4	9	70	20	100	–
AgRP: agouti-related protein, endogenous MC3R and MC4R antagonist and MC4R inverse agonist	Yes	–	–	–	–	–	–	–	–	–	IC50 ([14]; read-out: IC50, displacement of radiolabeled NDP-MSH at the MC5R): 310 nM; IC50 ([14]; read-out: IC50, displacement of radiolabeled AgRP at the MC5R): 26 nM
CC(C)[C@@H]1NC(=O)[C@H](CC(N)=O)NC(=O)[C@H](Cc2ccccc2)NC(=O)[C@H](Cc2ccccc2)NC(=O)[C@H](CCCNC(=N)N)NC(=O)[C@@H]2CCCN2C(=O)[C@H]2CCCN2C(=O)[C@H](Cc2ccccc2)NC1=O [ZMK 2-82, c[Pro-Arg-Phe-Phe-Asn-Val-Phe-DPro]] (cyclo(PRFFNVF[dP]))	Yes	5.9 and 5.9 ± 0.1	7.2 and 7.2 ± 0.1	6.1 and 6.1 ± 0.09	7.7	2	3	2	2	3	mMC4R percent maximal stimulatory response ([8]; @ 100 μM, relative to NDP-MSH signal): 16% @; hMC4R pA2 ([5]; listed as AMK 2-82): 7.8 ± 0.03
